Three compounds from patent US11433036B2, “Oxprenolol compositions for treating cancer” (priority 2013, dated 2022) can be followed below.

Where two headings read alike, the source gives them in different places.

The subject of assay [1] is Yoshida Hepatoma Model. As to the kind of experiment: Survival in Yoshida hepatoma model. Format: in vivo, male Wistar rats. From the text: (§1) Ascites hepatoma Yoshida AH-130 cells (10^3 cells) were inoculated into about 200 gram male Wistar rats by i.p. injection. Alternatively animals received saline injection only (sham). The day after inoculation animals were randomized into various groups and then received twice daily treatment with either placebo or various test compositions by oral gavage over a period of up to 17 days. The primary endpoints of the study included assessment of body weight, body composition (with and without tumor), and survival. Body composition was monitored by NMR. Echocardiography was used in instances to monitor condition of the heart. Organ weight was assessed at the end of the study (or after death) as a secondary endpoint. In addition, locomotor activity and food intake were also assessed. FIG. 1 provides a diagram showing the design study. R- and S-oxprenolol were manufactured to order by Peakdale Molecular, Peakdale Science Park, Sheffield Road. Chapel-en-le-Frith, High Peak SK23 0PG, UK
To study the effect of S-oxprenolol and R-oxprenolol on survival, survival was monitored over time.

Assay [2] concerns Yoshida Hepatoma Model.
Text: as §1
To study the effect of the test compounds on body weight, body weight was monitored over time.
To study the effect of the test compounds as mixtures of enantiomers on body weight, body weight was monitored over time.

The subject of assay [3] is Yoshida Hepatoma Model.
Text: as §1
To study the effect of the test compounds on lean body mass, lean mass was determined at the end of the study.
To study the effect of the test compounds as mixtures of enantiomers on lean body mass, lean mass was determined at the end of the study.
This is another data set of the same source.

The test system of assay [4] is Yoshida Hepatoma Model.
Text: as §1
To study the effect of the test compounds on fat mass, the fat mass were determined at the end of the study.
To study the effect of the test compounds as mixtures of enantiomers on fat mass, the fat mass were determined at the end of the study.
The source holds these as a separate data set.

In assay [5] the test system is Yoshida Hepatoma Model. The settings on record: 5, 12.5, 25 or 50 mg/kg/day; end of study; FIGS. 13A-13D.
Text: as §1
To study the effect of the test compounds on skeletal muscle atrophy and heart weight, the skeletal muscle mass and heart weight were determined at the end of the study.

Assay [6] concerns Yoshida Hepatoma Model. The settings on record: Day 11; for food intake: FIG. 17; for locomotor activity: FIG. 18.
Text: as §1
To study the effect of the test compounds on quality of life, parameters of quality of life such as food intake and locomotor activity were assessed at Day 11.

The subject of assay [7] is Yoshida Hepatoma Model. The settings on record: 5, 12.5, 25 or 50 mg/kg/day vs placebo; end of study; FIGS. 19A and 19B.
Text: as §1
To study the effect of the test compounds on tumor growth, tumor growth was assessed at the end of the study.

Assay [8] has as its system B16V (melanoma). The settings on record: B16V cells; BrdU incorporation and XTT assay; FIG. 20. How it is done:
(§2) The effect of the test compounds on tumor growth was also evaluated in an in vitro experiment with various tumor cells, namely, Kelly (neuroblastoma), Hela-93 (cervix carcinoma), and B16V (melanoma). Cell growth was assessed by BrdU incorporation (left of FIG. 20) and XTT assay (right of FIG. 20). Doxorubicin was used as a positive control.
Background: Incorporation of labelled thymidine or its analogues reports DNA synthesis.

Assay [9] has as its system Hela-93 (cervix carcinoma). The settings on record: Hela-93 cells; BrdU incorporation and XTT assay; FIG. 20. How it is done: as §2
Assay [10] concerns Kelly (neuroblastoma). The settings on record: Kelly cells; BrdU incorporation and XTT assay; FIG. 20. How it is done:
as §2

The mark [11] stands for this setting: 5 mg/kg/day or 25 mg/kg/day vs placebo.
The mark [12] stands for this setting: 25 mg/kg/day S-oxprenolol vs same amount of R-oxprenolol.

In the case of `C=CCOc1ccccc1OCC(O)CNC(C)C` (racemic) [racemic mixture of oxprenolol, 1-[2-(allyloxy)phenoxy]-3-(isopropylamino)propan-2-ol, reference compound], in assay [1] (S-oxprenolol 20 mg/kg/day vs racemic mixture 40 mg/kg/day (same amount of S-oxprenolol), FIG. 3), the percent survival result is given as “rats receiving S-oxprenolol had longer survival than those receiving the racemic mixture”. Besides, the “change in body weight” value in assay [2] (S-oxprenolol 20 mg/kg/day vs racemic mixture 40 mg/kg/day, FIG. 8) is given as “rats receiving S-oxprenolol had less body weight loss than those receiving the racemic mixture”. Further, the “change in lean body mass” value in [3] (S-oxprenolol 20 mg/kg/day vs racemic mixture 40 mg/kg/day, FIG. 11A) is “rats receiving S-oxprenolol had less change in lean body weight than those receiving the racemic mixture”. For the same compound, in [3] (S-oxprenolol 20 mg/kg/day vs racemic mixture 40 mg/kg/day, FIG. 11B), the “change in lean body mass/days alive” value is on record as “rats receiving S-oxprenolol had less change in lean body mass than those receiving the racemic mixture”. In [4] (S-oxprenolol 20 mg/kg/day vs racemic mixture 40 mg/kg/day, FIG. 16A), the “weight of white adipose tissue (WAT)” value is reported as “rats receiving S-oxprenolol had significantly better effect in preserving the white adipose tissue than those receiving the racemic mixture”. The “weight of brown adipose tissue (BAT)” value in assay [4] (S-oxprenolol 20 mg/kg/day vs racemic mixture 40 mg/kg/day, FIG. 16B) was “rats receiving S-oxprenolol had better effect in preserving the brown adipose tissue than those receiving the racemic mixture”.

Turning to `C=CCOc1ccccc1OC[C@H](O)CNC(C)C` [R-oxprenolol, (R)-(+)-oxprenolol, reference compound], the percent survival result in assay [1] (25 mg/kg/day or 50 mg/kg/day, oral gavage twice daily, up to 17 days, FIG. 2) is “did not show statistically significant improvement on survival over those in the placebo group”; in assay [1] (R-oxprenolol 5, 12.5, 25 or 50 mg/kg/day, FIG. 6) it was “no statistically significant survival benefit over placebo was observed”. The survival entry in [1] (animal inoculated with hepatocellular carcinoma cells, summary statement) was “S-oxprenolol, but not R-oxprenolol, significantly improved survival”. In addition, the “change of body weight” value in [2] (5, 12.5, 25 or 50 mg/kg/day, FIG. 7) is “rats receiving S-oxprenolol had less body weight loss than those in the placebo group and those administered with R-oxprenolol”. Besides, the “change in lean body mass” value in assay [3] (5, 12.5, 25 or 50 mg/kg/day, FIG. 10) is listed as “rats receiving S-oxprenolol at doses of 12.5 mg/kg/day or higher had less change in lean body mass than those receiving R-oxprenolol”. The “mass of skeletal muscle (gastrocnemius, tibialis anterior, soleus, EDL)” value in assay [5] was “does not have this protective effect”. Also, the “change in fat mass” value in assay [4] (5, 12.5, 25 or 50 mg/kg/day, FIG. 14) was “rats receiving S-oxprenolol at 12.5 mg/kg/day or higher had less fat mass loss than those in the placebo group or those receiving R-oxprenolol”. The “weight of white adipose tissue (WAT)” value in [4] (5, 12.5, 25 or 50 mg/kg/day, FIG. 15A) is given as “S-oxprenolol had better effects in reducing fat wasting than R-oxprenolol”. Further, the “weight of brown adipose tissue (BAT)” value in [4] (5, 12.5, 25 or 50 mg/kg/day, FIG. 15B) is “both enantiomers of oxprenolol protect BAT mass”. Besides, the results for the food intake entry in assay [6] (setting [11]) and in assay [6] (setting [12]) were “higher food intake than those in the placebo group” and “Rats receiving 25 mg/kg/day S-oxprenolol had higher food intake than those receiving the same amount of R-oxprenolol”, respectively. For the same compound, the locomotor activity entry in [6] (setting [11]) is recorded as “higher locomotive activity than those in the placebo group”; in [6] (setting [12]), “Rats receiving 25 mg/kg/day S-oxprenolol had higher locomotive activity than those receiving the same amount of R-oxprenolol”. Moreover, in [7], the “tumor growth (tumor volume, total number of cells in a tumor)” value is “did not have any significant effects on tumor growth compared to those in the placebo group”. Further, the tumor cell proliferation result in assay [8], in assay [9] and in assay [10] was “neither S-oxprenolol nor R-oxprenolol showed any inhibitor effects on tumor cell proliferation” each time.

Regarding `CC(C)NC[C@H](O)COc1cccc2[nH]ccc12` [S-pindolol, reference compound], the percent survival entry in [1] (S-oxprenolol vs placebo or S-pindolol 3 mg/kg/day, FIG. 4) is “S-oxprenolol was significantly superior to either placebo or S-pindolol at its preferred dose”.
